Test results published in patent US10351573B2, “Benzoic acid, benzoic acid derivatives and heteroaryl carboxylic acid conjugates of hydrocodone, prodrugs, methods of making and uses thereof” (KemPharm, Inc., priority 2009, dated 2019).
Entries after “also recorded” stand apart in the source; their conditions may differ. Ends that are not written are not given here.

Assays:
[1] = Water solubility / feasibility of intranasal or intravenous dosing; settings: water
[2] = Hydrolysis in 5% NaHCO3 for one hour; assay type: physicochemical
[3] = Hydrolysis to hydrocodone in 1 N hydrochloric acid for 1 hour
[4] = Chemical stability: hydrolysis of conjugates in water for one hour; assay type: physicochemical
Description: Exemplary conjugates of hydrocodone of the present technology and control test conjugates not of the present technology were tested for chemical stability under conditions similar to what a potential drug abuser may use to “extract” the active portion of the molecule, for example dissolved in water, hydrochloric acid or sodium bicarbonate either at ambient temperature or 100° C.

[5] = Oral PK profiles in rats (plasma hydrocodone, hydromorphone, intact Bz-HC by LC/MS/MS); settings: equivalent to 2 mg/kg hydrocodone freebase
[6] = Intranasal PK profile in rats; settings: equivalent to 2 mg/kg hydrocodone freebase

Row | Compound | water solubility (in words) [1] | %-release in 5% NaHCO3 ([2]; 5% NaHCO3, 100° C.) [%] | %-release in 5% NaHCO3 ([2]; 5% NaHCO3, ambient (~20° C.)) [%] | %-release in 1N HCl ([3]; 100° C.) [%] | %-release in 1N HCl ([3]; ambient (~20° C.)) [%] | %-release (conjugate hydrolyzed) in water ([4]; 100° C.) [%] | %-release (conjugate hydrolyzed) in water ([4]; ambient (about 20° C.)) [%] | other results
1 | COc1ccc2c3c1OC1C(OC(=O)c4cccc(O)c4)=CC[C@H]4[C@@H](C2)N(C)CC[C@]314 (stereo partly shown) [Compound 3-OH-Bz-HC] | poorly water soluble; also recorded: hydrophobic |  |  |  |  |  |  | 
2 | COc1ccc2c3c1OC1C(OC(=O)c4ccc(O)cc4)=CC[C@H]4[C@@H](C2)N(C)CC[C@]314 (stereo partly shown) [Compound 4-OH-Bz-HC] | hydrophobic | 23 | 1 | 30 | 0 | 0 | 0 | 
3 | COc1ccc(C(=O)OC2=CC[C@H]3[C@H]4Cc5ccc(OC)c6c5[C@@]3(CCN4C)C2O6)cc1O (stereo partly shown) [3-OH-4-MeO-Bz-HC] | poorly water soluble; also recorded: hydrophobic | 36 | 0 | 35 | 0 |  |  | 
4 | COc1ccc2c3c1OC1C(OC(=O)c4cccnc4)=CCC4C(C2)N(C)CCC314 (stereo not shown) [Nicotinate-HC, nicotinate-hydrocodone] | hydrophobic |  |  |  |  |  |  | AUC values of hydrocodone and hydromorphone compared to Hydrocodone.BT (in words) [5]: within the range of bioequivalence
5 | Tyr-Tyr-Phe-Phe-Ile-Hydrocodone (YYFFI-Hydrocodone) [YYFFI-HC, reference compound] |  | 70 | 0 |  |  |  |  | 
6 | COc1ccc(C(=O)OC2=CC[C@H]3[C@H]4Cc5ccc(OC)c6c5[C@@]3(CCN4C)C2O6)cc1 (stereo partly shown) [Compound 4-MeO-Bz-HC] | hydrophobic |  |  |  |  | 0 | 0 | 
7 | COc1ccc2c3c1OC1C(OC(=O)CCCCC(=O)O)=CC[C@H]4[C@@H](C2)N(C)CC[C@]314 (stereo partly shown) [Adipate-HC, reference compound] | water soluble | 100 | 3 | 100 | 13 |  |  | AUC for hydromorphone (FIG. 8), % higher than Bz-HC [6]: approximately 750%; AUC for hydromorphone (so in the source); FIG. 7, hydrocodone curves), % higher than Bz-HC [6]: approximately 280%; Cmax for hydromorphone (FIG. 8), % higher than Bz-HC [6]: ~660%; Cmax for hydromorphone (so in the source); FIG. 7, hydrocodone curves), % higher than Bz-HC [6]: ~60%
8 | 2-aminobenzoate hydrocodone [Compound 2-ABz-HC] |  |  |  | 16 | 0 | 0 | 0 | AUC of hydrocodone, % lower than Hydrocodone.BT [5]: approximately 35%; AUC of hydromorphone, % lower than Hydrocodone.BT [5]: approximately 25%; Cmax of hydrocodone, % lower than Hydrocodone.BT [5]: ~60%; Cmax of hydromorphone, % lower than Hydrocodone.BT [5]: ~50%
9 | COc1ccc2c3c1OC1C(OC(=O)COCC(=O)O)=CC[C@H]4[C@@H](C2)N(C)CC[C@]314 (stereo partly shown) [Diglycolate-HC, reference compound] | water soluble |  |  |  |  |  |  | 
10 | COc1ccc2c3c1OC1C(OC(=O)c4ccc5c(c4)OCO5)=CC[C@H]4[C@@H](C2)N(C)CC[C@]314 (stereo partly shown) [Piperonylate-HC] | hydrophobic |  |  |  |  |  |  | water solubility (in words) ([1]; listed as piperonylate-HC): poorly water soluble
